Counter-ions that a name gives are not always drawn.
Molecular target: T1, Adrenergic β2 (Homo sapiens, UniProt P07550)
T1 construct: Adherent H292 cells were removed from tissue culture flasks; endogenous in cells; host or cells: H292 cells
Experiment: Adrenergic β2 mediated cAMP production in H292 cells (AlphaScreen cAMP detection)
Format: cell-based
Conditions: Intrinsic Activity, fraction relative to the maximum activity determined for formoterol
Experimental: Adrenergic β2 Mediated cAMP Production
H292 cells were grown in 225 cm2 flasks incubator at 37° C., 5% CO2 in RPMI medium containing, 10% (v/v) FBS (foetal bovine serum) and 2 mM L-glutamine.
Adherent H292 cells were removed from tissue culture flasks by treatment with Accutase™ cell detachment solution for 15 minutes. Flasks were incubated for 15 minutes in a humidified incubator at 37° C., 5% CO2. Detached cells were re-suspended in RPMI media (containing 10% (v/v) FBS and 2 mM L-glutamine) at 0.05×10^6 cells per mL. 5000 cells in 100 μL were added to each well of a tissue-culture-treated 96-well plate and the cells incubated overnight in a humidified incubator at 37° C., 5% CO2. The culture media was removed and cells were washed twice with 100 μL assay buffer and replaced with 50 μL assay buffer (HBSS solution containing 10 mM HEPES pH 7.4 and 5 mM glucose). Cells were rested at room temperature for 20 minutes after which time 25 μL of rolipram (1.2 mM made up in assay buffer containing 2.4% (v/v) dimethylsulphoxide) was added. Cells were incubated with rolipram for 10 minutes after which time test compounds were added and the cells were incubated for 60 minutes at room temperature. The final rolipram concentration in the assay was 300 μM and final vehicle concentration was 1.6% (v/v) dimethylsulphoxide. The reaction was stopped by removing supernatants, washing once with 100 μL assay buffer and replacing with 50 μL lysis buffer. The cell monolayer was frozen at −80° C. for 30 minutes (or overnight).
The concentration of cAMP (cyclic adenosine monophosphate) in the cell lysate was determined using AlphaScreen™ methodology. The frozen cell plate was thawed for 20 minutes on a plate shaker then 10 μL of the cell lysate was transferred to a 96-well white plate. 40 μL of mixed AlphaScreen™ detection beads pre-incubated with biotinylated cAMP, was added to each well and the plate incubated at room temperature for 10 hours in the dark. The AlphaScreen™ signal was measured using an EnVision spectrophotometer (Perkin-Elmer Inc.) with the recommended manufacturer's settings. cAMP concentrations were determined by reference to a calibration curve determined in the same experiment using standard cAMP concentrations. Concentration response curves for agonists were constructed and data was fitted to a four parameter logistic equation to determine both the pEC50 and Intrinsic Activity. Intrinsic Activity was expressed as a fraction relative to the maximum activity determined for formoterol in each experiment.

T1 sequence (P07550 whole entry): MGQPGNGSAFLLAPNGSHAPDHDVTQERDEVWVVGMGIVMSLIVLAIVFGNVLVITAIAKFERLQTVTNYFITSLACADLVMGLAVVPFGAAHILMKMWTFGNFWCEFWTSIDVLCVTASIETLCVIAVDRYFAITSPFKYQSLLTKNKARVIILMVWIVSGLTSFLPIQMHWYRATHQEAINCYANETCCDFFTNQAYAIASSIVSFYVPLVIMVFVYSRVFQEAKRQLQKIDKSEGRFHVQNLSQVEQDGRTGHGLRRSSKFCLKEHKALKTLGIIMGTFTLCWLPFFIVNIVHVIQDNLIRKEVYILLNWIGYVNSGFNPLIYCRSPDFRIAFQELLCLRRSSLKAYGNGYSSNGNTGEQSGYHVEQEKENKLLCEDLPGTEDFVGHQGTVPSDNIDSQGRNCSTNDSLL

CC(C)(CO)CN(CCNCCc1ccc(O)c2[nH]c(=O)sc12)C(=O)CCNCCc1ccc(Cl)cc1 [Example 40, N^3-[2-(4-Chlorophenyl)ethyl]-N-(3-hydroxy-2,2-dimethylpropyl)-N-(2-{[2-(4-hydroxy-2-oxo-2,3-dihydro-1,3-benzothiazol-7-yl)ethyl]amino}ethyl)-β-alaninamide diacetic acid salt]
β2 Int Act: 0.64

O=C(CCNCCc1ccc(O)cc1)N(CCNCCc1ccc(O)c2[nH]c(=O)sc12)C1CCCCC1 [Example 34, N-Cyclohexyl-N-(2-{[2-(4-hydroxy-2-oxo-2,3-dihydro-1,3-benzothiazol-7-yl)ethyl]amino}ethyl)-N^3-[2-(4-hydroxyphenyl)ethyl]-β-alaninamide bis-trifluoroacetic acid salt]
β2 Int Act: 0.75

O=C(CCNCCc1cccc(Cl)c1)N(CCNCCc1ccc(O)c2[nH]c(=O)sc12)C1CCOCC1 [Example 22, N^3-[2-(3-Chlorophenyl)ethyl]-N-(2-{[2-(4-hydroxy-2-oxo-2,3-dihydro-1,3-benzothiazol-7-yl)ethyl]amino}ethyl)-N-(tetrahydro-2H-pyran-4-yl)-β-alaninamide bis-trifluoroacetic acid salt]
β2 Int Act: 0.96

CC(C)(C)CN(CCNCCc1ccc(O)c2[nH]c(=O)sc12)C(=O)CCNCCc1ccc(Cl)cc1 [Example 8, N^3-[2-(4-Chlorophenyl)ethyl]-N-(2,2-dimethylpropyl)-N-(2-{[2-(4-hydroxy-2-oxo-2,3-dihydro-1,3-benzothiazol-7-yl)ethyl]amino}ethyl)-β-alaninamide bis-trifluoroacetic acid salt]
β2 Int Act: 0.73

O=C(CCNCCc1cccc(C(F)(F)F)c1)N(CCNCCc1ccc(O)c2[nH]c(=O)sc12)C1CCCCCC1 [Example 82, N^1-Cycloheptyl-N^1-(2-{[2-(4-hydroxy-2-oxo-2,3-dihydro-1,3-benzothiazol-7-yl)ethyl]amino}ethyl)-N^3-{2-[3-(trifluoromethyl)phenyl]ethyl}-β-alaninamide bis-trifluoroacetic acid salt]
β2 Int Act: 0.86

CC(=O)OCC(C)(C)CN(CCNCCc1ccc(O)c2[nH]c(=O)sc12)C(=O)CCNCCc1ccc(Cl)cc1 [Example 39, 3-[{N-[2-(4-Chlorophenyl)ethyl]-β-alanyl}(2-{[2-(4-hydroxy-2-oxo-2,3-dihydro-1,3-benzothiazol-7-yl)ethyl]amino}ethyl)amino]-2,2-dimethylpropyl acetate diacetic acid salt]
β2 Int Act: 0.58

O=C(CCNCCc1ccccc1)N(CCNCCc1ccc(O)c2[nH]c(=O)sc12)CC12CC3CC(CC(C3)C1)C2 [Example 59, N^1-(1-Adamantylmethyl)-N^1-(2-{[2-(4-hydroxy-2-oxo-2,3-dihydro-1,3-benzothiazol-7-yl)ethyl]amino}ethyl)-N^3-(2-phenylethyl)-β-alaninamide bis-trifluoroacetic acid salt]
β2 Int Act: 0.85

CC(C)(C)CN(CCNCCc1ccc(O)c2[nH]c(=O)sc12)C(=O)CCNCCc1ccc(Cl)c(Cl)c1 [Example 9, N^3-[2-(3,4-Dichlorophenyl)ethyl]-N-(2,2-dimethylpropyl)-N-(2-{[2-(4-hydroxy-2-oxo-2,3-dihydro-1,3-benzothiazol-7-yl)ethyl]amino}ethyl)-β-alaninamide bis-trifluoroacetic acid salt]
β2 Int Act: 0.65

NS(=O)(=O)c1ccc(CCNCCC(=O)N(CCNCCc2ccc(O)c3[nH]c(=O)sc23)C2CCCCC2)cc1 [Example 69, N^3-{2-[4-(Aminosulfonyl)phenyl]ethyl}-N^1-cyclohexyl-N^1-(2-{[2-(4-hydroxy-2-oxo-2,3-dihydro-1,3-benzothiazol-7-yl)ethyl]amino}ethyl)-β-alaninamide bis-trifluoroacetic acid salt]
β2 Int Act: 0.82

O=C(CCNCCc1cccc(O)c1)N(CCNCCc1ccc(O)c2[nH]c(=O)sc12)C1CCCCCC1 [Example 37, N-Cycloheptyl-N-(2-{[2-(4-hydroxy-2-oxo-2,3-dihydro-1,3-benzothiazol-7-yl)ethyl]amino}ethyl)-N^3-[2-(3-hydroxyphenyl)ethyl]-β-alaninamide bis-trifluoroacetic acid salt]
β2 Int Act: 0.91

CC(C)(CO)CN(CCNCCc1ccc(O)c2[nH]c(=O)sc12)C(=O)CCNCCc1cccc(Cl)c1Cl [Example 67, N^3-[2-(2,3-Dichlorophenyl)ethyl]-N^1-(3-hydroxy-2,2-dimethylpropyl)-N^1-(2-{[2-(4-hydroxy-2-oxo-2,3-dihydro-1,3-benzothiazol-7-yl)ethyl]amino}ethyl)-β-alaninamide bis-trifluoroacetic acid salt]
β2 Int Act: 0.70

O=C(CCNCCc1ccc(Cl)s1)N(CCNCCc1ccc(O)c2[nH]c(=O)sc12)C1CCCCC1 [Example 72, N^3-[2-(5-Chloro-2-thienyl)ethyl]-N^1-cyclohexyl-N^1-(2-{[2-(4-hydroxy-2-oxo-2,3-dihydro-1,3-benzothiazol-7-yl)ethyl]amino}ethyl)-β-alaninamide bis-trifluoroacetic acid salt]
β2 Int Act: 0.89

O=C(CCNCCc1cccc(O)c1)N(CCNCCc1ccc(O)c2[nH]c(=O)sc12)C1CCCCCCC1 [Example 90, N^1-Cyclooctyl-N^1-(2-{[2-(4-hydroxy-2-oxo-2,3-dihydro-1,3-benzothiazol-7-yl)ethyl]amino}ethyl)-N^3-[2-(3-hydroxyphenyl)ethyl]-β-alaninamide bis-trifluoroacetic acid salt]
β2 Int Act: 0.71

CC(C)(CO)CN(CCNCCc1ccc(O)c2[nH]c(=O)sc12)C(=O)CCNCCc1ccccc1Cl [Example 65, N^3-[2-(2-Chlorophenyl)ethyl]-N^1-(3-hydroxy-2,2-dimethylpropyl)-N^1-(2-{[2-(4-hydroxy-2-oxo-2,3-dihydro-1,3-benzothiazol-7-yl)ethyl]amino}ethyl)-β-alaninamide bis-trifluoroacetic acid salt]
β2 Int Act: 0.59

Cc1ccccc1CCNCCC(=O)N(CCNCCc1ccc(O)c2[nH]c(=O)sc12)C1CCOCC1 [Example 27, N-(2-{[2-(4-Hydroxy-2-oxo-2,3-dihydro-1,3-benzothiazol-7-yl)ethyl]amino}ethyl)-N^3-[2-(2-methylphenyl)ethyl]-N-(tetrahydro-2H-pyran-4-yl)-β-alaninamide bis-trifluoroacetic acid salt]
β2 Int Act: 0.95

O=C(CCNCCc1ccc(F)c(F)c1)N(CCNCCc1ccc(O)c2[nH]c(=O)sc12)C1CCCCCC1 [Example 53, N^1-Cycloheptyl-N^3-[2-(3,4-difluorophenyl)ethyl]-N^1-(2-{[2-(4-hydroxy-2-oxo-2,3-dihydro-1,3-benzothiazol-7-yl)ethyl]amino}ethyl)-β-alaninamide bis-trifluoroacetic acid salt]
β2 Int Act: 0.74

O=C(CCNC[C@H](O)c1ccccc1)N(CCNCCc1ccc(O)c2[nH]c(=O)sc12)C1CCCCC1 [Example 75, N^1-Cyclohexyl-N^1-(2-{[2-(4-hydroxy-2-oxo-2,3-dihydro-1,3-benzothiazol-7-yl)ethyl]amino}ethyl)-N^3-[(2R)-2-hydroxy-2-phenylethyl]-β-alaninamide bis-trifluoroacetic acid salt]
β2 Int Act: 0.91

Source: patent US7700782B2, “Compounds 569” (AstraZeneca AB, priority 2007, dated 2010)
